Experimental data published in patent publication US20230085307A1, “PYRIDAZINONE COMPOUND AND HERBICIDE” (NISSAN CHEMICAL CORPORATION, priority 2019, published 2023).

What was measured:
wild oat [1] = test: Test Example 5: herbicidal effect by foliage application, plastic box (Table 20, symbol I); assay type: in vivo, wild oat (Avena fatua); conditions: amount of applied herbicide 320 g/ha; foliage application after 14-day growth; evaluated three weeks after application
Method in brief: (§1)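 Sow seeds spot-wise in sterilized diluvial soil; cover with ~1.5 cm soil. Grow 14 days in greenhouse, 25° C. to 30° C. Spray foliage with emulsion diluted to predetermined amount. Rate effect after 3 weeks.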

chickweed [2] = test: Test Example 4: herbicidal effect by soil treatment (Table 19, symbol P); assay type: in vivo, common chickweed (Stellaria media); conditions: amount of applied herbicide 320 g/ha
Method in brief: (§2)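 Applied as a water-diluted emulsion, the compound was sprayed onto soil covering newly sown seeds. Evaluation came three weeks after application, in a greenhouse held at 25° C. to 30° C.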

persian speedwell [3] = test: Test Example 5: herbicidal effect by foliage application, plastic box (Table 20, symbol R); assay type: in vivo, Persian speedwell (Veronica persica); conditions: amount of applied herbicide 320 g/ha; foliage application after 14-day growth; evaluated three weeks after application
Method in brief: as §1

Italian ryegrass [4] = test: Test Example 4: herbicidal effect by soil treatment (Table 19, symbol K); assay type: in vivo, Italian ryegrass (Lolium multiflorum); conditions: amount of applied herbicide 320 g/ha
Method in brief: as §2

southern crabgrass [5] = test: Test Example 5: herbicidal effect by foliage application, plastic box (Table 20, symbol F); assay type: in vivo, southern crabgrass (Digitaria ciliaris); conditions: amount of applied herbicide 320 g/ha; foliage application after 14-day growth; evaluated three weeks after application
Method in brief: as §1

wild oat [6] = test: Test Example 4: herbicidal effect by soil treatment (Table 19, symbol I); assay type: in vivo, wild oat (Avena fatua); conditions: amount of applied herbicide 320 g/ha
Method in brief: as §2

persian speedwell [7] = test: Test Example 4: herbicidal effect by soil treatment (Table 19, symbol R); assay type: in vivo, Persian speedwell (Veronica persica); conditions: amount of applied herbicide 320 g/ha
Method in brief: as §2

green foxtail [8] = test: Test Example 4: herbicidal effect by soil treatment (Table 19, symbol G); assay type: in vivo, green foxtail (Setaria viridis); conditions: amount of applied herbicide 320 g/ha
Method in brief: as §2

blackgrass [9] = test: Test Example 5: herbicidal effect by foliage application, plastic box (Table 20, symbol J); assay type: in vivo, blackgrass (Alopecurus myosuroides); conditions: amount of applied herbicide 320 g/ha; foliage application after 14-day growth; evaluated three weeks after application
Method in brief: as §1

velvetleaf [10] = test: Test Example 4: herbicidal effect by soil treatment (Table 19, symbol M); assay type: in vivo, velvetleaf (Abutilon theophrasti); conditions: amount of applied herbicide 320 g/ha
Method in brief: as §2

windgrass [11] = test: Test Example 4: herbicidal effect by soil treatment (Table 19, symbol L); assay type: in vivo, windgrass (Apera spica-venti); conditions: amount of applied herbicide 320 g/ha
Method in brief: as §2

velvetleaf [12] = test: Test Example 5: herbicidal effect by foliage application, plastic box (Table 20, symbol M); assay type: in vivo, velvetleaf (Abutilon theophrasti); conditions: amount of applied herbicide 320 g/ha; foliage application after 14-day growth; evaluated three weeks after application
Method in brief: as §1

barnyard grass [13] = test: Test Example 5: herbicidal effect by foliage application, plastic box (Table 20, symbol H); assay type: in vivo, barnyard grass (Echinochloa crus-galli); conditions: amount of applied herbicide 320 g/ha; foliage application after 14-day growth; evaluated three weeks after application
Method in brief: as §1

green foxtail [14] = test: Test Example 5: herbicidal effect by foliage application, plastic box (Table 20, symbol G); assay type: in vivo, green foxtail (Setaria viridis); conditions: amount of applied herbicide 320 g/ha; foliage application after 14-day growth; evaluated three weeks after application
Method in brief: as §1

windgrass [15] = test: Test Example 5: herbicidal effect by foliage application, plastic box (Table 20, symbol L); assay type: in vivo, windgrass (Apera spica-venti); conditions: amount of applied herbicide 320 g/ha; foliage application after 14-day growth; evaluated three weeks after application
Method in brief: as §1

blackgrass [16] = test: Test Example 4: herbicidal effect by soil treatment (Table 19, symbol J); assay type: in vivo, blackgrass (Alopecurus myosuroides); conditions: amount of applied herbicide 320 g/ha
Method in brief: as §2

redroot pigweed [17] = test: Test Example 4: herbicidal effect by soil treatment (Table 19, symbol N); assay type: in vivo, redroot pigweed (Amaranthus retroflexus); conditions: amount of applied herbicide 320 g/ha
Method in brief: as §2

rice flat sedge = test: Test Example 3: herbicidal effect by foliage application, Wagner pot (Table 18, symbol E); assay type: in vivo, rice flat sedge (Cyperus iria); conditions: 320 g/ha
Method in brief: (§3)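 Plants were sown in alluvial soil held under 0.1–0.5 cm standing water and grown 14 days in a greenhouse at 25–30 °C. An emulsifiable formulation, water-diluted to the set dose, was then sprayed onto the foliage, and effects were scored three weeks later using previously defined criteria.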

lambsquarters [18] = test: Test Example 4: herbicidal effect by soil treatment (Table 19, symbol O); assay type: in vivo, lambsquarters (Chenopodium album); conditions: amount of applied herbicide 320 g/ha
Method in brief: as §2

chickweed [19] = test: Test Example 5: herbicidal effect by foliage application, plastic box (Table 20, symbol P); assay type: in vivo, common chickweed (Stellaria media); conditions: amount of applied herbicide 320 g/ha; foliage application after 14-day growth; evaluated three weeks after application
Method in brief: as §1

redroot pigweed [20] = test: Test Example 5: herbicidal effect by foliage application, plastic box (Table 20, symbol N); assay type: in vivo, redroot pigweed (Amaranthus retroflexus); conditions: amount of applied herbicide 320 g/ha; foliage application after 14-day growth; evaluated three weeks after application
Method in brief: as §1

barnyard grass [21] = test: Test Example 4: herbicidal effect by soil treatment (Table 19, symbol H); assay type: in vivo, barnyard grass (Echinochloa crus-galli); conditions: amount of applied herbicide 320 g/ha
Method in brief: as §2

Chinese sprangletop = test: Test Example 3: herbicidal effect by foliage application, Wagner pot (Table 18, symbol D); assay type: in vivo, chinese sprangletop (Leptochloa chinensis); conditions: 320 g/ha
Method in brief: as §3

southern crabgrass [22] = test: Test Example 4: herbicidal effect by soil treatment (Table 19, symbol F); assay type: in vivo, southern crabgrass (Digitaria ciliaris); conditions: amount of applied herbicide 320 g/ha
Method in brief: as §2

lambsquarters [23] = test: Test Example 5: herbicidal effect by foliage application, plastic box (Table 20, symbol O); assay type: in vivo, lambsquarters (Chenopodium album); conditions: amount of applied herbicide 320 g/ha; foliage application after 14-day growth; evaluated three weeks after application
Method in brief: as §1

barnyard grass [24] = test: Test Example 3: herbicidal effect by foliage application, Wagner pot (Table 18, symbol H); assay type: in vivo, barnyard grass (Echinochloa crus-galli); conditions: 320 g/ha
Method in brief: as §3

Italian ryegrass [25] = test: Test Example 5: herbicidal effect by foliage application, plastic box (Table 20, symbol K); assay type: in vivo, Italian ryegrass (Lolium multiflorum); conditions: amount of applied herbicide 320 g/ha; foliage application after 14-day growth; evaluated three weeks after application
Method in brief: as §1

Compound | Herbicidal effect by foliage application, I: wild oat (wild oat [1]) | P: chickweed, herbicidal effect grade (chickweed [2]) | Herbicidal effect by foliage application, R: persian speedwell (persian speedwell [3]) | K: Italian ryegrass, herbicidal effect grade (Italian ryegrass [4]) | Herbicidal effect by foliage application, F: southern crabgrass (southern crabgrass [5]) | I: wild oat, herbicidal effect grade (wild oat [6]) | R: persian speedwell, herbicidal effect grade (persian speedwell [7]) | G: green foxtail, herbicidal effect grade (green foxtail [8]) | Herbicidal effect by foliage application, J: blackgrass (blackgrass [9]) | M: velvetleaf, herbicidal effect grade (velvetleaf [10]) | L: windgrass, herbicidal effect grade (windgrass [11]) | Herbicidal effect by foliage application, M: velvetleaf (velvetleaf [12]) | Herbicidal effect by foliage application, H: barnyard grass (barnyard grass [13]) | Herbicidal effect by foliage application, G: green foxtail (green foxtail [14]) | Herbicidal effect by foliage application, L: windgrass (windgrass [15]) | J: blackgrass, herbicidal effect grade (blackgrass [16]) | N: redroot pigweed, herbicidal effect grade (redroot pigweed [17]) | herbicidal effect on rice flat sedge (E) (rice flat sedge) | O: lambsquarters, herbicidal effect grade (lambsquarters [18]) | Herbicidal effect by foliage application, P: chickweed (chickweed [19]) | also measured
CC(=O)COc1ccc(-c2sc3cc(F)c(F)cc3c2-c2c(O)c(C)nn(C)c2=O)cc1 [5-023] | 0 (Herbicidal rate of 5% or less (almost no effect)) | 3 (Herbicidal rate of 40% or more and less than 70%) | 3 (Herbicidal rate of 40% or more and less than 70%) | 0 (Herbicidal rate of 5% or less (almost no effect)) | 0 (Herbicidal rate of 5% or less (almost no effect)) | 0 (Herbicidal rate of 5% or less (almost no effect)) | 0 (Herbicidal rate of 5% or less (almost no effect)) | 0 (Herbicidal rate of 5% or less (almost no effect)) | 0 (Herbicidal rate of 5% or less (almost no effect)) | 0 (Herbicidal rate of 5% or less (almost no effect)) | 0 (Herbicidal rate of 5% or less (almost no effect)) | 5 (Herbicidal rate of 90% or more (almost completely withered)) | 1 (Herbicidal rate of 5% or more and less than 20%) | 4 (Herbicidal rate of 70% or more and less than 90%) | 0 (Herbicidal rate of 5% or less (almost no effect)) | 0 (Herbicidal rate of 5% or less (almost no effect)) | 3 (Herbicidal rate of 40% or more and less than 70%) | 0 (Herbicidal rate of 5% or less (almost no effect)) | 2 (Herbicidal rate of 20% or more and less than 40%) | 5 (Herbicidal rate of 90% or more (almost completely withered)) | Herbicidal effect by foliage application, N: redroot pigweed (redroot pigweed [20]): 5 (Herbicidal rate of 90% or more (almost completely withered)); H: barnyard grass, herbicidal effect grade (barnyard grass [21]): 0 (Herbicidal rate of 5% or less (almost no effect)); herbicidal effect on Chinese sprangletop (D) (Chinese sprangletop): 3 (Herbicidal rate of 40% or more and less than 70%); F: southern crabgrass, herbicidal effect grade (southern crabgrass [22]): 0 (Herbicidal rate of 5% or less (almost no effect)); Herbicidal effect by foliage application, O: lambsquarters (lambsquarters [23]): 3 (Herbicidal rate of 40% or more and less than 70%); herbicidal effect on barnyard grass (H) (barnyard grass [24]): 4 (Herbicidal rate of 70% or more and less than 90%); Herbicidal effect by foliage application, K: Italian ryegrass (Italian ryegrass [25]): 0 (Herbicidal rate of 5% or less (almost no effect))
Cc1nn(C)c(=O)c(-c2c(-c3ccc(C#N)cc3)sc3cc(F)c(F)cc23)c1O [5-025] | 3 (Herbicidal rate of 40% or more and less than 70%) | 3 (Herbicidal rate of 40% or more and less than 70%) | 5 (Herbicidal rate of 90% or more (almost completely withered)) | 1 (Herbicidal rate of 5% or more and less than 20%) | 3 (Herbicidal rate of 40% or more and less than 70%) | 1 (Herbicidal rate of 5% or more and less than 20%) | 4 (Herbicidal rate of 70% or more and less than 90%) | 4 (Herbicidal rate of 70% or more and less than 90%) | 1 (Herbicidal rate of 5% or more and less than 20%) | 3 (Herbicidal rate of 40% or more and less than 70%) | 0 (Herbicidal rate of 5% or less (almost no effect)) | 5 (Herbicidal rate of 90% or more (almost completely withered)) | 1 (Herbicidal rate of 5% or more and less than 20%) | 4 (Herbicidal rate of 70% or more and less than 90%) | 5 (Herbicidal rate of 90% or more (almost completely withered)) | 0 (Herbicidal rate of 5% or less (almost no effect)) | 5 (Herbicidal rate of 90% or more (almost completely withered)) | 4 (Herbicidal rate of 70% or more and less than 90%) | 5 (Herbicidal rate of 90% or more (almost completely withered)) | 5 (Herbicidal rate of 90% or more (almost completely withered)) | Herbicidal effect by foliage application, N: redroot pigweed (redroot pigweed [20]): 5 (Herbicidal rate of 90% or more (almost completely withered)); H: barnyard grass, herbicidal effect grade (barnyard grass [21]): 3 (Herbicidal rate of 40% or more and less than 70%); herbicidal effect on Chinese sprangletop (D) (Chinese sprangletop): 4 (Herbicidal rate of 70% or more and less than 90%); F: southern crabgrass, herbicidal effect grade (southern crabgrass [22]): 1 (Herbicidal rate of 5% or more and less than 20%); Herbicidal effect by foliage application, O: lambsquarters (lambsquarters [23]): 5 (Herbicidal rate of 90% or more (almost completely withered)); herbicidal effect on barnyard grass (H) (barnyard grass [24]): 3 (Herbicidal rate of 40% or more and less than 70%); Herbicidal effect by foliage application, K: Italian ryegrass (Italian ryegrass [25]): 1 (Herbicidal rate of 5% or more and less than 20%)
